From PubChem BioAssay (NCI)
Where “and” joins values, the source holds several entries; their conditions need not be identical. Equal entries are not always repeated.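 Five concentrations, 48 hours, 96-well plates. Abbreviation: GI50, concentration required for 50% inhibition of growth. TGI denotes the concentration required for complete inhibition of growth.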

What was measured:
Assay in all cases: NCI tumour cell line growth inhibition, 48 h
SNB-78 CNS = test system: SNB-78 CNS
RXF-631 renal = test system: RXF-631 renal
MDA-MB-435 = test system: MDA-MB-435
MDA-N = test system: MDA-N
BT-549 breast = test system: BT-549 breast
DU-145 prostate = test system: DU-145 prostate
PC-3 prostate = test system: PC-3 prostate
T-47D breast = test system: T-47D breast
MDA-MB-231 breast = test system: MDA-MB-231 breast
HS 578T breast = test system: HS 578T breast
P388/ADR leukemia = test system: P388/ADR leukemia

## CC(=O)c1cccc(NC(=O)C(=O)C(C(=O)c2ccccc2F)C2OC(=O)c3ccccc32)c1 (stereo unspecified)
SNB-78 CNS
  TGI: > 100 µM
RXF-631 renal
  TGI: > 100 µM

## CCOC(=O)C1=NN(c2ccccc2)C2=CC(C)=NN(C)C(=S)N21
MDA-MB-435
  TGI: > 100 µM
MDA-N
  TGI: > 100 µM
BT-549 breast
  TGI: > 100 µM
DU-145 prostate
  TGI: > 100 µM
PC-3 prostate
  TGI: > 100 µM
T-47D breast
  TGI: > 100 µM
MDA-MB-231 breast
  TGI: > 100 µM
HS 578T breast
  TGI: > 100 µM

## O=C1CCc2cc3c(cc21)CC1(Cc2cc4c(cc2C1)CCCC4)C3
MDA-MB-435
  TGI: 51 µM
MDA-N
  TGI: 39.4 µM
BT-549 breast
  TGI: > 100 µM
DU-145 prostate
  TGI: > 100 µM
PC-3 prostate
  TGI: > 100 µM
T-47D breast
  TGI: > 100 µM
MDA-MB-231 breast
  TGI: > 100 µM
HS 578T breast
  TGI: 90.2 µM

## CC[C@](C)(O)C(=O)O[C@H]1C(=O)O[C@@H]2C[C@H]3C(C)=C[C@H](O)[C@@H](O)[C@]3(C)[C@H]3[C@@]4(O)OC[C@]32[C@@H]1[C@@H](C)[C@H]4O
P388/ADR leukemia
  TGI: 325 µM
SNB-78 CNS
  TGI: 138 µM

## COc1cc(C2c3cc4c(cc3[C@@H](NCCCN(C)C)[C@H]3COC(=O)C23)OCO4)cc(OC)c1O (stereo partly specified)
SNB-78 CNS
  GI50: 2.6 µM and 11.6 µM
  TGI: > 37.5 µM

## CCOC(=O)/C=C/c1c[nH]c(C(=O)OCC)c1
P388/ADR leukemia
  TGI: > 100 µM
SNB-78 CNS
  TGI: > 100 µM

## ClCc1ccc2ccc3ccc(CCl)nc3c2n1
P388/ADR leukemia
  TGI: 5.07 µM
SNB-78 CNS
  TGI: 10.3 µM
